Experimental data published in ChEMBL document CHEMBL5058646 (2022).

How the values were obtained:
[1] = target: Ephrin type-A receptor 5 (Homo sapiens) (UniProt P54756); assay: EPHA5 SGC Tm panel (DSF); conditions: Compound concentration 20.0 uM
Myoneurin (Homo sapiens) = Myoneurin (Homo sapiens) (UniProt Q9NPC7); conditions: SUD4, Compound concentration 1.0 uM
[2] = target: Death-associated protein kinase 3 (Homo sapiens) (UniProt O43293); assay: DAPK3 SGC Tm panel (DSF); conditions: Compound concentration 20.0 uM
Rattus norvegicus = species on record: Rattus norvegicus; conditions: Compound concentration 10.0 uM
[3] = target: Transcription intermediary factor 1-alpha (Homo sapiens) (UniProt O15164); assay: TIF1 SGC Tm panel (DSF); conditions: Compound concentration 20.0 uM
Transcription intermediary factor 1-alpha (Homo sapiens), sequence (O15164 whole entry): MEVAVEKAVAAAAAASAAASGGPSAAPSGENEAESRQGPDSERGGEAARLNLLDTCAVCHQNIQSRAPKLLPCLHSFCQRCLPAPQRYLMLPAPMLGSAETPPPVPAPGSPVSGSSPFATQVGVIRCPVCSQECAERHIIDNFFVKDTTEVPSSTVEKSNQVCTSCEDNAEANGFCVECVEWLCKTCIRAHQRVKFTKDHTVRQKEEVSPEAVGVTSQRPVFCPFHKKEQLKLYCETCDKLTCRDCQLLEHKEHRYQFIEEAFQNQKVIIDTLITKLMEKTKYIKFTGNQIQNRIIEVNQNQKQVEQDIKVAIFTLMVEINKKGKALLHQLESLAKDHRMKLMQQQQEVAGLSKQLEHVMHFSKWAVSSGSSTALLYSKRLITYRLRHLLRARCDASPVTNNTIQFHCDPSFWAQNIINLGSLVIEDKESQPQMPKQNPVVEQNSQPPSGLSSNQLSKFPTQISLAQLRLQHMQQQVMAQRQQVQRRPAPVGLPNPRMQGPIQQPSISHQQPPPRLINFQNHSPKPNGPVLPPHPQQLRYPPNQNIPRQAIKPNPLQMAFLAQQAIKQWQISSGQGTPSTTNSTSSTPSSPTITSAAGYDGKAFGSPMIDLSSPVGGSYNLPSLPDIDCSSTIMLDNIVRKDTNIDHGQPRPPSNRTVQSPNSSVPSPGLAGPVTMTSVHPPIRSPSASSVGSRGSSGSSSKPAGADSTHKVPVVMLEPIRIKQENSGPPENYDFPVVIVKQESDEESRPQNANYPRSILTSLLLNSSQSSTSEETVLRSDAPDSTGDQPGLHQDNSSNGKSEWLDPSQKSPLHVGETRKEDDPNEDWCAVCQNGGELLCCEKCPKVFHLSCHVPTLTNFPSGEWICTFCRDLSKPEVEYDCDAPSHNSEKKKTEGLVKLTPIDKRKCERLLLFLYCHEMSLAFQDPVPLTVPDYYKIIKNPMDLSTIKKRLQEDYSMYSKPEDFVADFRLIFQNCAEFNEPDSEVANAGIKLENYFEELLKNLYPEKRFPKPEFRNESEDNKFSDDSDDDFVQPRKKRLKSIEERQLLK

[4] = target: Fibroblast growth factor receptor 2 (Homo sapiens) (UniProt P21802); assay: FGFR2 SGC Tm panel (DSF); conditions: Compound concentration 20.0 uM
[5] = target: Aurora kinase A (Homo sapiens) (UniProt O14965); assay: STK6 SGC Tm panel (DSF); conditions: Compound concentration 20.0 uM
Aurora kinase A (Homo sapiens), sequence (O14965 whole entry): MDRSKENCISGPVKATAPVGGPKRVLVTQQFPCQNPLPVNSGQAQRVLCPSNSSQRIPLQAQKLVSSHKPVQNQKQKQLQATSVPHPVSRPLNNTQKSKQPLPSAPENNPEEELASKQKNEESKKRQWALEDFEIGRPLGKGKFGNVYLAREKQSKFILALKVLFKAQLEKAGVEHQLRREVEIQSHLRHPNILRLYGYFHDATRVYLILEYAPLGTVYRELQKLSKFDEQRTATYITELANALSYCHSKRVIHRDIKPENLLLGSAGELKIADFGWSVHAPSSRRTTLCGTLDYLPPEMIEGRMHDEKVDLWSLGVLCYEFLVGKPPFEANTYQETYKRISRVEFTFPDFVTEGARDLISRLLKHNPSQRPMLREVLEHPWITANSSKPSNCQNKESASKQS

[6] = target: Alpha-2B adrenergic receptor (Homo sapiens) (UniProt P18089); conditions: Compound concentration 10.0 uM
[7] = target: Dual specificity mitogen-activated protein kinase kinase 7 (Homo sapiens) (UniProt O14733); assay: MAP2K7 SGC Tm panel (DSF); conditions: Compound concentration 20.0 uM
Dual specificity mitogen-activated protein kinase kinase 7 (Homo sapiens), sequence (O14733 whole entry): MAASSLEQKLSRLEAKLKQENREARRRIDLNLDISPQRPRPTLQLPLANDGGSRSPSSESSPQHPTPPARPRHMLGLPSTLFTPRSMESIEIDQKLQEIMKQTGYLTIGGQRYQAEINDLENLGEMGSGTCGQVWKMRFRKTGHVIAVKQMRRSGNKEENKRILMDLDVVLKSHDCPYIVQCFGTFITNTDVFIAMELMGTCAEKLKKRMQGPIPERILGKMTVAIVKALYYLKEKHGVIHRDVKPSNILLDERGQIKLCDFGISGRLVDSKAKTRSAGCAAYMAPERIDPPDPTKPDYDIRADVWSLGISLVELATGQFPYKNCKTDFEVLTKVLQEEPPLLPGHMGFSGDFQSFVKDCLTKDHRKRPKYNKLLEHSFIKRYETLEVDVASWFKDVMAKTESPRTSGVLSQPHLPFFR

[8] = target: Beta-3 adrenergic receptor (Homo sapiens, UniProt P13945); assay: GPCRScan assay: inhibition of Beta3; set-up: radioligand conc. used [nm] 0.2 – 0.5, parental cells HEK Flp-In
Beta-3 adrenergic receptor, sequence (P13945 whole entry): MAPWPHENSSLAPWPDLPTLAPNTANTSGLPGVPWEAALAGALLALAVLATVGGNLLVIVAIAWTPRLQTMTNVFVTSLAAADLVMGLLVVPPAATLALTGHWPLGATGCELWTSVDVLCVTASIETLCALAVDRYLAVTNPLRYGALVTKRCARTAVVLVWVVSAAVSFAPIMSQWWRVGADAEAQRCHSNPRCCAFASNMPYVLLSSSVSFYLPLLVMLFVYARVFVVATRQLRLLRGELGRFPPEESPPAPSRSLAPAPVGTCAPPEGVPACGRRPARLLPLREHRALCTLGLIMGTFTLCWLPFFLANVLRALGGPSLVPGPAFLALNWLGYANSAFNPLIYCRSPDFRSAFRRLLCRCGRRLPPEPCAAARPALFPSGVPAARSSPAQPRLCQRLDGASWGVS

[9] = target: Protein archease (Homo sapiens) (UniProt Q8IWT0); conditions: SUD4, Compound concentration 1.0 uM
Protein archease (Homo sapiens), sequence (Q8IWT0 whole entry): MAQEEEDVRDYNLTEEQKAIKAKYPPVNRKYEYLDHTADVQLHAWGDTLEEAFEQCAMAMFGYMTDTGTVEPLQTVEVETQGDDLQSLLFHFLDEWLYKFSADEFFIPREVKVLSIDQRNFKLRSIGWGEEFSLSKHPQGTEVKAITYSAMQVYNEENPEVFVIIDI

[10] = target: Ribosomal protein S6 kinase alpha-5 (Homo sapiens) (UniProt O75582); assay: RPS6KA5 SGC Tm panel (DSF); conditions: Compound concentration 20.0 uM
[11] = target: Serine/threonine-protein kinase haspin (Homo sapiens) (UniProt Q8TF76); assay: GSG2 SGC Tm panel (DSF); conditions: Compound concentration 20.0 uM
Serine/threonine-protein kinase haspin (Homo sapiens), sequence (Q8TF76 whole entry): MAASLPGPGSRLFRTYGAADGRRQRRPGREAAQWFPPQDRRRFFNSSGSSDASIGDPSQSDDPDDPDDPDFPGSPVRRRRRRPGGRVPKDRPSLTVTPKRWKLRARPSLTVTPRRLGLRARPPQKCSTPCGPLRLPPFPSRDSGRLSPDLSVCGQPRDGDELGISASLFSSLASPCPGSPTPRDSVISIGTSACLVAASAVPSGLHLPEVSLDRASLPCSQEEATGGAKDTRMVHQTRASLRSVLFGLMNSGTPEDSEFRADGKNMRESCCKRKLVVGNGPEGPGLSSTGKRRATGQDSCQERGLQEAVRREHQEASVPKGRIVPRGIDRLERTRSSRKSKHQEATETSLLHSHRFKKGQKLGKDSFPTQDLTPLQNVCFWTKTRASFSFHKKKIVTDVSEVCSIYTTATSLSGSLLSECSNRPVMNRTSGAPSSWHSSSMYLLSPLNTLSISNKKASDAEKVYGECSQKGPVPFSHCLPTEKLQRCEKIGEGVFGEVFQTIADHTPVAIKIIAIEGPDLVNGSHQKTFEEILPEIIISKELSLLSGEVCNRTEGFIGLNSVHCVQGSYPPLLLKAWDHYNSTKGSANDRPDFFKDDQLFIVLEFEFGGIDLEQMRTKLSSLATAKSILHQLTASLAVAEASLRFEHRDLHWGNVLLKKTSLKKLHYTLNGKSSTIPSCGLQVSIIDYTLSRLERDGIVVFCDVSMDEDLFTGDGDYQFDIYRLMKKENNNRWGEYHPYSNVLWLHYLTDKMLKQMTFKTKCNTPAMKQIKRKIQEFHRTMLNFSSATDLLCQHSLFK

[12] = target: Delta-type opioid receptor (Homo sapiens) (UniProt P41143); conditions: Compound concentration 10.0 uM
[13] = target: Peripheral plasma membrane protein CASK (Homo sapiens) (UniProt O14936); assay: CASK SGC Tm panel (DSF); conditions: Compound concentration 20.0 uM
[14] = target: Serine/threonine-protein kinase PAK 4 (Homo sapiens) (UniProt O96013); assay: PAK4 SGC Tm panel (DSF); conditions: Compound concentration 20.0 uM
[15] = target: T1, Telomere zinc finger-associated protein (Homo sapiens) (UniProt P10074); conditions: OCI-Ly1, Compound concentration 1.0 uM
T1 sequence (whole entry): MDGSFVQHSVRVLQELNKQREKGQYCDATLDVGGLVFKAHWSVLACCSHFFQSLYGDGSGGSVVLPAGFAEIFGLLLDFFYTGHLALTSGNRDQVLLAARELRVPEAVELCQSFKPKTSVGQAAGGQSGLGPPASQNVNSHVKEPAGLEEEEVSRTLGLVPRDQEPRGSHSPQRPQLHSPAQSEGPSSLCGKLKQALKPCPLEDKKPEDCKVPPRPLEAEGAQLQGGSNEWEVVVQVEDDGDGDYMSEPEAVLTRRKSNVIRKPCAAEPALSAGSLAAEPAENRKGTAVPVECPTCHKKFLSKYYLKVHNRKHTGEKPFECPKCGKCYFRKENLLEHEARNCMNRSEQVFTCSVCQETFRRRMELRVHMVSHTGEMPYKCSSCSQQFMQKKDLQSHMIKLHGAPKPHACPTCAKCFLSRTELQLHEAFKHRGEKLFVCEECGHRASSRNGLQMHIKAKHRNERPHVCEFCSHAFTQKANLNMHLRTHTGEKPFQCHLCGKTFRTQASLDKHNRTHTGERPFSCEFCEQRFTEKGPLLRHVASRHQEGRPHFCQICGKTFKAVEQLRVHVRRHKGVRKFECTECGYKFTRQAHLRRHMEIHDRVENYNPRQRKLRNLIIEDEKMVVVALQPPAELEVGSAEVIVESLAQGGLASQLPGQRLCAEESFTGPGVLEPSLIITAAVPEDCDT

[16] = target: Dual specificity mitogen-activated protein kinase kinase 1 (Homo sapiens) (UniProt Q02750); assay: MAP2K1 SGC Tm panel (DSF); conditions: Compound concentration 20.0 uM
[17] = target: Zinc finger and BTB domain-containing protein 43 (Homo sapiens) (UniProt O43298); conditions: SUD4, Compound concentration 1.0 uM
[18] = target: B-cell lymphoma 6 protein (Homo sapiens, UniProt P41182); conditions: OCI-Ly1, Compound concentration 1.0 uM
[19] = target: Serine/threonine-protein kinase RIO1 (Homo sapiens) (UniProt Q9BRS2); assay: RIOK1 SGC Tm panel (DSF); conditions: Compound concentration 20.0 uM
[20] = target: T2, Zinc finger protein 131 (Homo sapiens) (UniProt P52739); conditions: OCI-Ly1, Compound concentration 1.0 uM
T2 sequence (whole entry): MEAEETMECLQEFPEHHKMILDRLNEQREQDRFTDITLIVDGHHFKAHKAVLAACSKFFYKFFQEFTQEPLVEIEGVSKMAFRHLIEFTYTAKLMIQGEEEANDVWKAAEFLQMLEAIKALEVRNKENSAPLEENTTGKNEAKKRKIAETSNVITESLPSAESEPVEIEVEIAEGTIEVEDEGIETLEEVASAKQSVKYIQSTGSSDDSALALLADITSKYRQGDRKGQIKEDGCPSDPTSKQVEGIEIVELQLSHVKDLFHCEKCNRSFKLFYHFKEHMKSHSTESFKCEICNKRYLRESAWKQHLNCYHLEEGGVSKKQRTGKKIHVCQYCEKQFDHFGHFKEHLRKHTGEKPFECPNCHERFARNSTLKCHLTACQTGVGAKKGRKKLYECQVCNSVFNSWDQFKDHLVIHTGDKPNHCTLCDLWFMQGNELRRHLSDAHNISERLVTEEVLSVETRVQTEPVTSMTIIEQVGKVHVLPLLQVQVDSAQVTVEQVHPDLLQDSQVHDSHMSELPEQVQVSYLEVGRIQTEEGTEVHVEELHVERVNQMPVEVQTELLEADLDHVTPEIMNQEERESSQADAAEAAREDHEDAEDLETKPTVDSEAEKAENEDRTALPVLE

[21] = target: Transcription regulator protein BACH2 (Homo sapiens) (UniProt Q9BYV9); conditions: SUD4, Compound concentration 1.0 uM
[22] = target: Serine/threonine-protein kinase ULK1 (Homo sapiens) (UniProt O75385); assay: ULK1 SGC Tm panel (DSF); conditions: Compound concentration 20.0 uM
Serine/threonine-protein kinase ULK1 (Homo sapiens), sequence (O75385 whole entry): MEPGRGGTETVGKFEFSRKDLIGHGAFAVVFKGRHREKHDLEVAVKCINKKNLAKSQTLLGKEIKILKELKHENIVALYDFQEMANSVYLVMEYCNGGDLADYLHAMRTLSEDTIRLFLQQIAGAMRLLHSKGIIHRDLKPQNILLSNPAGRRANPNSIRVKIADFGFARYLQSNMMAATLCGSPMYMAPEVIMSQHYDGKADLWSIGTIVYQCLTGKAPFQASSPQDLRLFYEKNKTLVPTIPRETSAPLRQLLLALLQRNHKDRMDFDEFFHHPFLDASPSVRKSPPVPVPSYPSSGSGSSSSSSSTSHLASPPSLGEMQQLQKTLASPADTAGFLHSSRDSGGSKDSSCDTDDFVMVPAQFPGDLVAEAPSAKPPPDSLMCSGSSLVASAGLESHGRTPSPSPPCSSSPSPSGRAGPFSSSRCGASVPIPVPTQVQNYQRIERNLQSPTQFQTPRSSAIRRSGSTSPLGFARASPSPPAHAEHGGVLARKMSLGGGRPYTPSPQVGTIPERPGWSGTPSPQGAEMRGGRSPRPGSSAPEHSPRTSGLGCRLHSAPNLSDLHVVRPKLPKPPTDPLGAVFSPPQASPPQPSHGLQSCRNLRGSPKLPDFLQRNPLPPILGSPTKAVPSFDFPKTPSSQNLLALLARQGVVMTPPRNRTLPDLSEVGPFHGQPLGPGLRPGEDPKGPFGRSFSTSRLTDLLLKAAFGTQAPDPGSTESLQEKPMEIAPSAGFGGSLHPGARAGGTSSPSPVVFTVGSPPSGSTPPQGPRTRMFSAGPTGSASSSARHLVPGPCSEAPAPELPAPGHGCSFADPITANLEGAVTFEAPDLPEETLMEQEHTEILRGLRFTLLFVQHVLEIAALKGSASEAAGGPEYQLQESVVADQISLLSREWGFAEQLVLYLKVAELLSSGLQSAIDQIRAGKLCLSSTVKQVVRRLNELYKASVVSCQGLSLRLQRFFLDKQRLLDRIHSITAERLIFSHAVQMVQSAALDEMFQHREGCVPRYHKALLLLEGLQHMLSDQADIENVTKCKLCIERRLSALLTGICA

Mu-type opioid receptor = Mu-type opioid receptor (Homo sapiens, UniProt P35372); conditions: Compound concentration 10.0 uM
Mu-type opioid receptor, sequence (P35372 whole entry): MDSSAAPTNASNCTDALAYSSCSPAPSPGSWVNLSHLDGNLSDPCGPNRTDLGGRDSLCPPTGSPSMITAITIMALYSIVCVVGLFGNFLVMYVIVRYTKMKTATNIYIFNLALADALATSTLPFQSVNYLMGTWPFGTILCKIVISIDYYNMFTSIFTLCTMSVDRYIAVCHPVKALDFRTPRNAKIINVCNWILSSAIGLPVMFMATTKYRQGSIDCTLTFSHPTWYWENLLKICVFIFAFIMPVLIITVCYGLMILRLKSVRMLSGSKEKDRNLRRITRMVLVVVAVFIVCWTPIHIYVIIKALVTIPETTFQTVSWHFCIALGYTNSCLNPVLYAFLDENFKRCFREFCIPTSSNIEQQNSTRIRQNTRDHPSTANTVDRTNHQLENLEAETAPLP

[23] = target: Serine/threonine-protein kinase 24 (Homo sapiens) (UniProt Q9Y6E0); assay: STK24 SGC Tm panel (DSF); conditions: Compound concentration 20.0 uM

- Tm [1]: 44 °C
- LogFC (Myoneurin (Homo sapiens)): -0.189
- inhibition (Rattus norvegicus): 59.6%
- Tm [3]: 36 °C
- Tm [4]: 50 °C
- Tm [5]: 45 °C
- inhibition [6]: 7.28%
- Tm [7]: 44 °C
- Ki ([8]; read-out: Ki): 3.99 µM
- Ki ([8]; read-out: pKi (converted)): 3.89 µM
- LogFC [9]: 0.104
- Tm [10]: 37 °C
- Tm [11]: 45 °C
- inhibition [12]: 18.1%
- Tm [13]: 68 °C
- Tm [14]: 46 °C
- LogFC [15]: 0.0229
- Tm [16]: 45 °C
- LogFC [17]: 0.0389
- LogFC [18]: -2.79
- Tm [19]: 40 °C
- LogFC [20]: -0.712
- LogFC [21]: -0.0358
- Tm [22]: 41 °C
- inhibition (Mu-type opioid receptor): 86.6%
- Tm [23]: 36 °C
Compound: C[C@@H]1CN(c2ncc(Cl)c(Nc3ccc4c(c3)n(CCC(C)(C)O)c(=O)n4C)n2)C[C@H](C)C1(F)F
- Tm [2]: 39 °C
